Regarding `Cc1cc(-c2ccc(C(F)(F)F)cc2)nc(-c2ccnc(-c3ccc(N)nc3)c2)n1` [Example 113, 4-[4-Methyl-6-(4-trifluoromethyl-phenyl)-pyrimidin-2-yl]-[2,3′]bipyridinyl-6′-ylamine], the melting point was 232 °C.
Molecule `Cc1cc(-c2ccc(C(F)(F)F)cc2)nc(-c2cccc(-c3cnc(N)nc3)c2)n1` [Example 115, 5-{3-[4-Methyl-6-(4-trifluoromethyl-phenyl)-pyrimidin-2-yl]-phenyl}-pyrimidin-2-ylamine] displayed a melting point of 290 °C.
Under `Cc1cc(-c2ccc(C(F)(F)F)cc2)nc(-c2cccc(-c3ccc(N)nc3)c2)n1` [Example 116, 5-{3-[4-Methyl-6-(4-trifluoromethyl-phenyl)-pyrimidin-2-yl]-phenyl}-pyridin-2-ylamine] stands 224 °C.
Under `Nc1ccc(-c2cccc(-c3nc(-c4ccc(C(F)(F)F)cc4)cc(C(F)(F)F)n3)c2)cc1` [Example 117, 3′-[4-Trifluoromethyl-6-(4-trifluoromethyl-phenyl)-pyrimidin-2-yl]-biphenyl-4-ylamine] stands 186 °C; under `Cc1cc(-c2ccc(C(F)(F)F)cc2)nc(-c2nc(-c3ccc(S(N)(=O)=O)cc3)no2)n1` [Example 118, 4-{5-[4-Methyl-6-(4-trifluoromethyl-phenyl)-pyrimidin-2-yl]-[1,2,4]oxadiazol-3-yl}-benzenesulfonamide], 326 °C.
Under `Cc1cc(-c2cc(C(F)(F)F)nc(-c3cccc(-c4ccc(N)nc4)c3)n2)ccc1C(F)(F)F` [Example 119, 5-{3-[4-(3-Methyl-4-trifluoromethyl-phenyl)-6-trifluoromethyl-pyrimidin-2-yl]-phenyl}-pyridin-2-ylamine] stands 207 °C; under `Cc1cc(-c2cc(C(F)(F)F)nc(-n3cnc(-c4ccc(N)nc4)c3)n2)ccc1C(F)(F)F` [Example 120, 5-{1-[4-(3-Methyl-4-trifluoromethyl-phenyl)-6-trifluoromethyl-pyrimidin-2-yl]-1H-imidazol-4-yl}-pyridin-2-ylamine], 290 °C.
As to `Cc1cc(-c2cc(C(F)(F)F)nc(-c3ccnc(-c4ccc(N)nc4)c3)n2)ccc1C(F)(F)F` [Example 121, 4-[4-(3-Methyl-4-trifluoromethyl-phenyl)-6-trifluoromethyl-pyrimidin-2-yl]-[2,3′]bipyridinyl-6′-ylamine], the melting point worked out at 223 °C.
Under `Cc1cc(-c2ccc(C(F)(F)F)c(C)c2)nc(-n2cnc(-c3ccc(N)nc3)c2)n1` [Example 122, 5-{1-[4-Methyl-6-(3-methyl-4-trifluoromethyl-phenyl)-pyrimidin-2-yl]-1H-imidazol-4-yl}-pyridin-2-ylamine] stands 247.5 °C; under `Cc1cc(-c2ccc(C(F)(F)F)c(C)c2)nc(-n2cnc(-c3cnc(N)nc3)c2)n1` [Example 123, 5-{1-[4-Methyl-6-(3-methyl-4-trifluoromethyl-phenyl)-pyrimidin-2-yl]-1H-imidazol-4-yl}-pyrimidin-2-ylamine], 248 °C; under `Cc1cc(-c2cc(C(F)(F)F)nc(-c3cccc(-c4cnc(N)nc4)c3)n2)ccc1C(F)(F)F` [Example 124, 5-{3-[4-(3-Methyl-4-trifluoromethyl-phenyl)-6-trifluoromethyl-pyrimidin-2-yl]-phenyl}-pyrimidin-2-ylamine], 244 °C.
Under `Cc1cc(-c2cc(C(F)(F)F)nc(-n3cnc(-c4cnc(N)nc4)c3)n2)ccc1C(F)(F)F` [Example 125, 5-{1-[4-(3-Methyl-4-trifluoromethyl-phenyl)-6-trifluoromethyl-pyrimidin-2-yl]-1H-imidazol-4-yl}-pyrimidin-2-ylamine] stands 297 °C; under `Cc1cc(-c2ccc(C(F)(F)F)cc2)nc(-c2nc(-c3cccc(S(N)(=O)=O)c3)no2)n1` [Example 126, 3-{5-[4-Methyl-6-(4-trifluoromethyl-phenyl)-pyrimidin-2-yl]-[1,2,4]oxadiazol-3-yl}-benzenesulfonamide], 240.5 °C.
Under `Cc1cc(-c2ccc(C(F)(F)F)cc2)nc(-c2nc(-c3ccc(N)nc3)no2)n1` [Example 127, 5-{5-[4-Methyl-6-(4-trifluoromethyl-phenyl)-pyrimidin-2-yl]-[1,2,4]oxadiazol-3-yl}-pyridin-2-ylamine] stands 216.5 °C.
For the molecule `Cc1cc(-c2cc(C(F)(F)F)nc(-c3nc(-c4ccc(S(N)(=O)=O)cc4)no3)n2)ccc1C(F)(F)F` [Example 128, 4-{5-[4-(3-Methyl-4-trifluoromethyl-phenyl)-6-trifluoromethyl-pyrimidin-2-yl]-[1,2,4]oxadiazol-3-yl}-benzenesulfonamide], the melting point came out at 261 °C.
Under `Cc1cc(-c2cc(C(F)(F)F)nc(-c3nc(-c4cccc(S(N)(=O)=O)c4)no3)n2)ccc1C(F)(F)F` [Example 129, 3-{5-[4-(3-Methyl-4-trifluoromethyl-phenyl)-6-trifluoromethyl-pyrimidin-2-yl]-[1,2,4}oxadiazol-3-yl]-benzenesulfonamide] stands 223.5 °C.
Under `Cc1cc(-c2cc(C(F)(F)F)nc(-c3nc(-c4ccc(N)nc4)no3)n2)ccc1C(F)(F)F` [Example 130, 5-{5-[4-(3-Methyl-4-trifluoromethyl-phenyl)-6-trifluoromethyl-pyrimidin-2-yl]-[1,2,4]oxadiazol-3-yl}-pyridin-2-ylamine] stands 223 °C; under `Cc1cc(-c2ccc(C(F)(F)F)c(C)c2)nc(-c2ccnc(-c3ccc(N)nc3)c2)n1` [Example 131, 4-[4-Methyl-6-(3-methyl-4-trifluoromethyl-phenyl)-pyrimidin-2-yl]-[2,3′]bipyridinyl-6′-ylamine], 188 °C; under `Cc1cc(-c2ccc(C(F)(F)F)c(C)c2)nc(-c2cccc(-c3ccc(N)nc3)c2)n1` [Example 132, 5-{3-[4-Methyl-6-(3-methyl-4-trifluoromethyl-phenyl)-pyrimidin-2-yl]-phenyl}-pyridin-2-ylamine], 153 °C.
Under `Nc1ccc(-c2cccc(-c3nc(-c4ccc(C(F)(F)F)c(OCC(F)(F)F)c4)cc(C(F)(F)F)n3)c2)cn1` [Example 133, 5-(3-{4-[3-(2,2,2-Trifluoro-ethoxy)-4-trifluoromethyl-phenyl]-6-trifluoromethyl-pyrimidin-2-yl}-phenyl)-pyridin-2-ylamine] stands 220 °C.
`Nc1ccc(-c2cn(-c3nc(-c4ccc(C(F)(F)F)c(OCC(F)(F)F)c4)cc(C(F)(F)F)n3)cn2)cn1` [Example 134, 5-(1-{4-[3-(2,2,2-Trifluoro-ethoxy)-4-trifluoromethyl-phenyl]-6-trifluoromethyl-pyrimidin-2-yl}-1H-imidazol-4-yl)-pyridin-2-ylamine] yielded a melting point of 285 °C.
Under `Nc1ccc(-c2cc(-c3nc(-c4ccc(C(F)(F)F)c(OCC(F)(F)F)c4)cc(C(F)(F)F)n3)ccn2)cn1` [Example 135, 4-{4-[3-(2,2,2-Trifluoro-ethoxy)-4-trifluoromethyl-phenyl]-6-trifluoromethyl-pyrimidin-2-yl}-[2,3′]bipyridinyl-6′-ylamine] stands 223 °C.
As to `Cc1cc(-c2ccc(Cl)cc2)nc(-c2nc(-c3ccc(S(N)(=O)=O)cc3)no2)n1` [Example 136, 4-{5-[4-(4-Chloro-phenyl)-6-methyl-pyrimidin-2-yl]-[1,2,4]oxadiazol-3-yl}-benzenesulfonamide], the melting point amounted to 297 °C.
Under `Cc1cc(-c2ccc(Cl)cc2)nc(-c2nc(-c3ccc(N)nc3)no2)n1` [Example 137, 5-{5-[4-(4-Chloro-phenyl)-6-methyl-pyrimidin-2-yl]-[1,2,4]oxadiazol-3-yl}-pyridin-2-ylamine] stands 258 °C; under `Nc1ncc(-c2cn(-c3nc(-c4cccc(C(F)(F)F)c4)cc(C(F)(F)F)n3)cn2)cn1` [Example 139, 5-{1-[4-Trifluoromethyl-6-(3-trifluoromethyl-phenyl)-pyrimidin-2-yl]-1H-imidazol-4-yl}-pyrimidin-2-ylamine], 223 °C.
In the case of `Nc1ccc(-c2cccc(-c3nc(-c4cccc(C(F)(F)F)c4)cc(C(F)(F)F)n3)c2)cn1` [Example 140, 5-{3-[4-Trifluoromethyl-6-(3-trifluoromethyl-phenyl)-pyrimidin-2-yl]-phenyl}-pyridin-2-ylamine], the melting point was determined as 162 °C.
Under `Nc1ccc(-c2cc(-c3nc(-c4cccc(C(F)(F)F)c4)cc(C(F)(F)F)n3)ccn2)cn1` [Example 141, 4-[4-Trifluoromethyl-6-(3-trifluoromethyl-phenyl)-pyrimidin-2-yl]-[2,3′]bipyridinyl-6′-ylamine] stands 196 °C; under `Cc1nc(-c2ccc(N)nc2)cn1-c1nc(-c2ccc(C(F)(F)F)cc2)cc(C(F)(F)F)n1` [Example 142, 5-{2-Methyl-1-[4-trifluoromethyl-6-(4-trifluoromethyl-phenyl)-pyrimidin-2-yl]-1H-imidazol-4-yl}-pyridin-2-ylamine], 285 °C.
Under `Cc1nc(-c2cnc(N)nc2)cn1-c1nc(-c2ccc(C(F)(F)F)cc2)cc(C(F)(F)F)n1` [Example 143, 5-{2-Methyl-1-[4-trifluoromethyl-6-(4-trifluoromethyl-phenyl)-pyrimidin-2-yl]-1H-imidazol-4-yl}-pyrimidin-2-ylamine] stands 286.5 °C; under `Cc1cc(-c2ccc(Cl)c(Cl)c2)nc(-n2cnc(-c3cnc(N)nc3)c2)n1` [Example 144, 5-{1-[4-(3,4-Dichloro-phenyl)-6-methyl-pyrimidin-2-yl]-1H-imidazol-4-yl}-pyrimidin-2-ylamine], 255.5 °C.
Consider `Cc1cc(-c2ccc(Cl)c(Cl)c2)nc(-n2cnc(-c3ccc(N)nc3)c2)n1` [Example 145, 5-{1-[4-(3,4-Dichloro-phenyl)-6-methyl-pyrimidin-2-yl]-1H-imidazol-4-yl}-pyridin-2-ylamine], for which the melting point amounted to 213 °C.
Under `Cc1cc(-c2ccc(Cl)c(Cl)c2)nc(-c2ccnc(-c3ccc(N)nc3)c2)n1` [Example 146, 4-[4-(3,4-Dichloro-phenyl)-6-methyl-pyrimidin-2-yl]-[2,3′]bipyridinyl-6′-ylamine] stands 205 °C.
